Data from US20250230193A1, “CYCLIC COMPOUND HAVING SELECTIVE KRAS INHIBITORY EFFECT ON HRAS AND NRAS” (CHUGAI SEIYAKU KABUSHIKI KAISHA, priority 2022, published 2025).
Where a SMILES comes first, the peptide text is derived from it. Bridges are numbered along the chain shown (N, C = ends). [ ]: non-standard residue; d: D form. The star is where a group is joined. hPhe(3-Cl-4-CF3) = N[C@@H](CCc1ccc(C(F)(F)F)c(Cl)c1)C(=O)O; NPrPhe(4-CF3) = CCCN[C@@H](Cc1ccc(C(F)(F)F)cc1)C(=O)O; NMeGly(cPent) = CN[C@H](C(=O)O)C1CCCC1; NMeF = CN[C@@H](Cc1ccccc1)C(=O)O; NMeD = CN[C@@H](CC(=O)O)C(=O)O; NMeL = CN[C@@H](CC(C)C)C(=O)O; NMeNva = CCC[C@H](NC)C(=O)O; Morpholide = C1CN(*)CCO1; NMeA = CN[C@@H](C)C(=O)O; Ac5c = NC1(C(=O)O)CCCC1; Aze = O=C(O)[C@@H]1CCN1; Ac4c = NC1(C(=O)O)CCC1; NPrGly = CCCNCC(=O)O; Sar = CNCC(=O)O

Columns and labels:
[1] = target: GDP-bound NRAS wild-type protein (Homo sapiens, UniProt P01111); assay: Binding to NRAS by surface plasmon resonance (SPR), Single Cycle Kinetics; conditions: SPR; for NRAS/KRAS (ratio of KD value with respect to NRAS to KD value with respect to KRAS) / NRAS/KRAS (ratio of KD value for NRAS to KD value for KRAS): GDP-bound NRAS wild-type vs GDP-bound KRAS wild-type
[2] = target: GDP-bound HRAS wild-type protein (Homo sapiens, UniProt P01112); assay: Binding to HRAS by surface plasmon resonance (SPR), Single Cycle Kinetics; conditions: SPR; for HRAS/KRAS (ratio of KD value with respect to HRAS to KD value with respect to KRAS) / HRAS/KRAS (ratio of KD value for HRAS to KD value for KRAS): GDP-bound HRAS wild-type vs GDP-bound KRAS wild-type
Chain of GDP-bound HRAS wild-type protein (P01112 whole entry): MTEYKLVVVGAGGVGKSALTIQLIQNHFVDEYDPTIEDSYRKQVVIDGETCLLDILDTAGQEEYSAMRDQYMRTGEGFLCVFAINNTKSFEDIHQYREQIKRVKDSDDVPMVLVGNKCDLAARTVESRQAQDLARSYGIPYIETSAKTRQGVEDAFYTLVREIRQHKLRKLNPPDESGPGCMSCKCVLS

Chain of GDP-bound NRAS wild-type protein (P01111 whole entry): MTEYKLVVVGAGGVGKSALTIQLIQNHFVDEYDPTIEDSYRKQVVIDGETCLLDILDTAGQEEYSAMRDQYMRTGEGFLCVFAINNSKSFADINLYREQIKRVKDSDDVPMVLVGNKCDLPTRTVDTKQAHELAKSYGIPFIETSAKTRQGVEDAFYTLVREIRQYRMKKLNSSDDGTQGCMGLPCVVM

CCO[C@@H]1C[C@H]2C(=O)NC3(CCC3)C(=O)N(C)[C@@H](C3CCCC3)C(=O)N(C)[C@H](C(=O)N(C)C)CC(=O)N(C)[C@@H](CC)C(=O)N[C@@H]([C@@H](C)CC)C(=O)N(C)CC(=O)N(C)[C@H]3CCCCN(C3=O)[C@@H](Cc3ccc(C(F)(F)F)cc3)C(=O)N(C)CC(=O)N[C@@H](CCc3cc(Cl)c(C(F)(F)F)c(Cl)c3)C(=O)N2C1 [PP0985]
NRAS/KRAS (ratio of KD value with respect to NRAS to KD value with respect to KRAS) ([1]; KD ratio): C (A compound having a KD ratio of 0.1 or more and less than 3 is denoted as C) | HRAS/KRAS (ratio of KD value with respect to HRAS to KD value with respect to KRAS) ([2]; KD ratio): C (A compound having a KD ratio of 0.1 or more and less than 3 is denoted as C)

CCCN(C)C(=O)[C@@H]1CC(=O)N(C)[C@@H](CC(C)C)C(=O)N[C@@H](C2CCOCC2)C(=O)N(C)CC(=O)N(C)[C@H]2C/C=C\CCN(C2=O)[C@@H](Cc2ccc(C(F)(F)F)cc2)C(=O)N(C)CC(=O)N[C@@H](CCc2cc(F)c(C(F)(F)F)c(F)c2)C(=O)N2C[C@H](OCC)C[C@H]2C(=O)NC2(CC(C)(C)C2)C(=O)N(C)[C@@H](C2CCCC2)C(=O)N1C [PP1923]
NRAS/KRAS (ratio of KD value for NRAS to KD value for KRAS) ([1]; KD ratio): A (a compound having 10 or more and less than 20 is denoted as A) | HRAS/KRAS (ratio of KD value for HRAS to KD value for KRAS) ([2]; KD ratio): A (a compound having 10 or more and less than 20 is denoted as A)

CC[C@H](C)[C@@H]1NC(=O)[C@H](CC(C)C)N(C)C(=O)C[C@@H](C(=O)N2CCOCC2)N(C)C(=O)[C@H](C2CCCC2)N(C)C(=O)C2(CCCC2)NC(=O)[C@@H]2CC(=O)CN2C(=O)[C@H](CCc2cc(F)c(C(F)(F)F)c(F)c2)NC(=O)CN(C)C(=O)[C@H](Cc2ccc(C(F)(F)F)cc2)N2CCCC[C@@H](C2=O)N(C)C(=O)CN(C)C1=O [PP0555]
NRAS/KRAS (ratio of KD value with respect to GDP-bound NRAS wild-type protein to KD value with respect to KRAS) ([1]; KD ratio NRAS/KRAS): B (a compound having 3 or more and less than 10 is denoted as B) | HRAS/KRAS (ratio of KD value with respect to GDP-bound HRAS wild-type protein to KD value with respect to KRAS) ([2]; KD ratio HRAS/KRAS): B (a compound having 3 or more and less than 10 is denoted as B)

CCCCO[C@@H]1C[C@H]2C(=O)NC3(CCC3)C(=O)N(C)[C@@H](C3CCCC3)C(=O)N(C)[C@H](C(=O)N3CCOCC3)CC(=O)N(C)[C@@H](CC(C)C)C(=O)N[C@@H]([C@@H](C)CC)C(=O)N(C)CC(=O)N(C)[C@H]3CCCCN(C3=O)[C@@H](Cc3ccc(C(F)(F)F)cc3)C(=O)N(C)CC(=O)N[C@@H](CCc3cc(F)c(C(F)(F)F)c(F)c3)C(=O)N2C1 [PP1013]
NRAS/KRAS (ratio of KD value with respect to NRAS to KD value with respect to KRAS) ([1]; KD ratio): C (A compound having a KD ratio of 0.1 or more and less than 3 is denoted as C) | HRAS/KRAS (ratio of KD value with respect to HRAS to KD value with respect to KRAS) ([2]; KD ratio): C (A compound having a KD ratio of 0.1 or more and less than 3 is denoted as C)

CCO[C@@H]1C[C@H]2C(=O)NC3(CC(C)(C)C3)C(=O)N(C)[C@@H](C(CC)CC)C(=O)N(C)[C@H](C(=O)N(C)C)CC(=O)N(C)[C@@H](CC(C)C)C(=O)N[C@@H]([C@@H](C)CC)C(=O)N(C)CC(=O)N(C)[C@H]3C/C=C\CCN(C3=O)[C@@H](Cc3ccc(C(F)(F)F)cc3)C(=O)N(C)CC(=O)N[C@@H](CCc3ccc(Cl)c(Cl)c3)C(=O)N2C1 [PP2176]
NRAS/KRAS (ratio of KD value with respect to NRAS to KD value with respect to KRAS) [1]: AA (a compound having 20 or more is denoted as AA) | HRAS/KRAS (ratio of KD value with respect to HRAS to KD value with respect to KRAS) [2]: A (a compound having 10 or more and less than 20 is denoted as A)

CCO[C@@H]1C[C@H]2C(=O)NC3(CC(C)(C)C3)C(=O)N(C)[C@@H](C3CCCC3)C(=O)N(C)[C@H](C(=O)N(C)C)CC(=O)N(C)[C@@H](COC)C(=O)N[C@@H]([C@@H](C)CC)C(=O)N(C)CC(=O)N(C)[C@H]3C/C=C\CCN(C3=O)[C@@H](Cc3ccc(C(F)(F)F)cc3)C(=O)N(C)CC(=O)N[C@@H](CCc3ccc(C(F)(F)F)c(Cl)c3)C(=O)N2C1 [PP1753]
NRAS/KRAS (ratio of KD value for NRAS to KD value for KRAS) ([1]; KD ratio): A (a compound having 10 or more and less than 20 is denoted as A) | HRAS/KRAS (ratio of KD value for HRAS to KD value for KRAS) ([2]; KD ratio): A (a compound having 10 or more and less than 20 is denoted as A)

CCCN(C)C(=O)[C@@H]1CC(=O)N(C)[C@@H](CC(F)F)C(=O)N[C@@H]([C@@H](C)CC)C(=O)N(C)CC(=O)N(C)[C@H]2C/C=C\CCN(C2=O)[C@@H](Cc2ccc(C(F)(F)F)cc2)C(=O)N(C)CC(=O)N[C@@H](CCc2ccc(C(F)(F)F)c(OC)c2)C(=O)N2C[C@@H](C)C[C@H]2C(=O)NC2(CC(C)(C)C2)C(=O)N(C)[C@@H](C2CCCC2)C(=O)N1C [PP1989]
NRAS/KRAS (ratio of KD value for NRAS to KD value for KRAS) ([1]; KD ratio): A (a compound having 10 or more and less than 20 is denoted as A) | HRAS/KRAS (ratio of KD value for HRAS to KD value for KRAS) ([2]; KD ratio): A (a compound having 10 or more and less than 20 is denoted as A)

CCC[C@H]1C(=O)N[C@@H]([C@@H](C)CC)C(=O)N(CCC)CC(=O)N(C)CC(=O)N(CCC)[C@@H](Cc2ccc(C(F)(F)F)cc2)C(=O)N(C)CC(=O)N[C@@H](CCc2ccc(C(F)(F)F)c(Cl)c2)C(=O)N2CCC[C@H]2C(=O)NC2(CCC2)C(=O)N(C)[C@@H](C2CCCC2)C(=O)N(C)[C@H](C(=O)N2CCOCC2)CC(=O)N1C [PP1947] ([NMeNva]I[NPrGly][Sar][NPrPhe(4-CF3)][Sar][hPhe(3-Cl-4-CF3)]P[Ac4c][NMeGly(cPent)][NMeD]-Morpholide; lactam N-11)
NRAS/KRAS (ratio of KD value for NRAS to KD value for KRAS) ([1]; KD ratio): B (a compound having 3 or more and less than 10 is denoted as B) | HRAS/KRAS (ratio of KD value for HRAS to KD value for KRAS) ([2]; KD ratio): B (a compound having 3 or more and less than 10 is denoted as B)

CCC[C@H]1C(=O)N[C@@H]([C@@H](C)CC)C(=O)N(C2CC2)CC(=O)N(C)[C@H]2C/C=C\CCN(C2=O)[C@@H](Cc2ccc(C)cc2)C(=O)N(C)CC(=O)N[C@@H](CCc2ccc(C(F)(F)F)c(OC)c2)C(=O)N2C[C@@H](C)C[C@H]2C(=O)N(C)C2(CCC2)C(=O)N(C)[C@@H](C2CCCC2)C(=O)N(C)[C@H](C(=O)N(C)C)CC(=O)N1C [PP2366]
NRAS/KRAS (ratio of KD value with respect to NRAS to KD value with respect to KRAS) [1]: A (a compound having 10 or more and less than 20 is denoted as A) | HRAS/KRAS (ratio of KD value with respect to HRAS to KD value with respect to KRAS) [2]: A (a compound having 10 or more and less than 20 is denoted as A)

CCCCN1CC(=O)NC2(CCC2)C(=O)N(C)[C@@H](C2CCCC2)C(=O)N(C)[C@H](C(=O)N(C)C)CC(=O)N(C)[C@@H](CC)C(=O)N[C@@H]([C@@H](C)CC)C(=O)N(C)CC(=O)N(C)[C@H]2C/C=C\CCN(C2=O)[C@@H](Cc2ccc(C(F)(F)F)cc2)C(=O)N(C)CC(=O)N[C@@H](CCc2cc(F)c(C(F)(F)F)c(F)c2)C1=O [PP1142]
NRAS/KRAS (ratio of KD value with respect to NRAS to KD value with respect to KRAS) ([1]; KD ratio): A (a compound having 10 or more and less than 20 is denoted as A) | HRAS/KRAS (ratio of KD value with respect to HRAS to KD value with respect to KRAS) ([2]; KD ratio): A (a compound having 10 or more and less than 20 is denoted as A)

CC[C@H](C)[C@@H]1NC(=O)[C@H](CC(C)C)N(C)C(=O)C[C@@H](C(=O)N2CCOCC2)N(C)C(=O)[C@H](C2CCCC2)N(C)C(=O)C2(CCCC2)NC(=O)[C@@H]2CCCN2C(=O)[C@H](CCc2ccc(C(F)(F)F)c(Cl)c2)NC(=O)CN(C)C(=O)[C@H](Cc2ccccc2)N(C)C(=O)[C@@H]2CCN2C(=O)[C@H](C)N(C)C1=O [PP0011] ([NMeL]I[NMeA][Aze][NMeF][Sar][hPhe(3-Cl-4-CF3)]P[Ac5c][NMeGly(cPent)][NMeD]-Morpholide; lactam N-11)
NRAS/KRAS (ratio of KD for GDP-bound NRAS wild-type to KD for KRAS) ([1]; KD ratio NRAS/KRAS): C (A compound having a KD ratio of 0.1 or more and less than 3 is denoted as C) | HRAS/KRAS (ratio of KD for GDP-bound HRAS wild-type to KD for KRAS) ([2]; KD ratio HRAS/KRAS): C (A compound having a KD ratio of 0.1 or more and less than 3 is denoted as C)
